The subject of series [1] is B16 melanoma cells. Nature of the series: Confocal time-lapse fluorescence imaging of drug uptake (IOD) in B16 melanoma cells. In kind it is cell-based, mouse. Conditions: 400 nM. How it is done: (§1) Cells growing in the Matra-Tek dishes were maintained in an environmental chamber (37° C. and 5% CO2 atmosphere) mounted on the stage of a Zeiss inverted fluorescence microscope equipped with a CARV spinning disk confocal attachment. B16 cells were imaged using a Zeiss 63× oil NA=1.4 apochromatic objective, which gave an image field of 7265.15 μm^2. Cardiac Fibroblasts were imaged using a Zeiss 40× oil 1.0 NA apochromatic objective, which gave an image field of 18,006.85 μm^2. The images were captured using a CCD camera (Hamamatsu ORCA-ER) controlled by Kinetic Imaging Image Acquisition Software (AQM Advance-6) software. All images were recorded at a constant exposure (385 ms) using a DAPI (360/460) filter set, which isolates the natural fluorescence of the compound.
(§2) The cells were maintained in 1 ml of tissue culture medium and allowed equilibrate in the environmental chamber, before imaging of the selected group of cells was initiated. […] The rate of entry of the drug into the cells was determined by high-speed image collection (1 sec interval, 60 exposures per min). The equilibrium-concentration uptake of the drug was determined by slow-speed time-lapse imaging (10 sec intervals, 6 exposures per min) collected for a minimum of 30 minutes. In all experiments, images were recorded prior to addition of the drug to provide a negative control of any auto-fluorescence present in the cells. […]

Series [2] relates to normal cardiac fibroblasts. Nature of the series: Phototoxic effect under blue light exposure during time-lapse imaging, normal cells. The format is cell-based, rat. How it is done: as §1, §2
Series [3] can be described thus: Experimental Log D, shaken-flask method (n-octanol/phosphate buffer). In kind it is physicochemical. Conditions: pH 7.6. As for the experimental part: The shaken-flask method with n-octanol/phosphate buffer was used to determine the experimental ionized partition coefficient for FC101^10. Briefly, 50 ml each of n-octanol and 0.1 M phosphate buffer (at appropriate pH) were added to a 125 ml flask and placed on a mechanical shaker at room temperature for 24 hours to ensure saturation of each phase. The phases were then separated by centrifugation (Damon IEC HN-SII) at 2000 rpm for 30 min. After separation, aliquots (1 ml) were taken from each phase and were placed in separate vials. A small sample (45.5 μl) of a stock solution of 10 mM FC101 in water was added to the aqueous phase. […] The n-octanol was separated from the phosphate buffer and the absorbance at 385 nm (Shimadzu UV 1601) was then used to determine the concentration of FC101 in each phase. The partition coefficient was calculated using the following equation: Log10 D=([FC101charged+uncharged]oct[FC101charged+uncharged]buf) Experimental Log P for FC101
The shaken-flask method with n-octanol/phosphate buffer was used to determine the experimental ionized partition coefficient for FC101^10. […] The n-octanol was separated from the phosphate buffer and the absorbance at 385 nm (Shimadzu UV 1601) was then used to determine the concentration of FC101 in each phase. […]

Series [4] is described as follows: Experimental Log P, shaken-flask method (n-octanol/water adjusted to pH 10). In kind it is physicochemical. As for the experimental part:
The shaken-flask method was also used to determine the experimental non-ionized partition coefficient for FC101. The same procedure used in the experimental determination of Log D for FC101 was used to determine the Log P with the exception that double-distilled water adjusted to pH 10 with 1 mM NaOH was used instead of the phosphate buffer. The log P was calculated using: Log10 P=Log10([FC101uncharged]oct/[FC101uncharged]wat) Imaging of Drug Uptake: […]

Series [5] deals with B16 melanoma cells. Nature of the series: Phototoxic effect under blue light exposure during time-lapse imaging, transformed cells. In kind it is cell-based, mouse. As to conditions: transformed cells loaded with FC101. As for the experimental part: as §1, §2
In the next series the test system is B-16 melanoma cells. Nature of the series: Cell growth inhibition, MTT assay. In kind it is cell-based, mouse. Conditions: B-16 melanoma cells compared to normal cardiac fibroblasts. How it is done:
Cells were plated in a 96 well format containing 100 μl per well of appropriate media at a density of 2.5×10^4 cells/ml, and incubated at 37° C. with 5% CO2. After a 24 h attachment period, the cells were treated in sextuplicate with 100 μl per well of varying concentrations (0 to 10 μM) of FC101. Final volume in each well was 200 μl. Cell proliferation was then determined by the MTT assay after 48 hr incubation period^8. Briefly, 20 μl of a 5 mg/ml solution of MTT (dissolved in HBS) was added to each well. After 4.5 hr incubation at 37° C., the media were then removed and the insoluble mitochondrial-converted dye was solubilized in 100 μl of DMSO. The plates were placed on a shaker for 30 min to ensure that all of the dye was in solution and then read on a (Spectra Max plus 384, Molecular Devices) microplate reader at […]. The background absorbency at 640 nM was subtracted from the 570 nM value before calculating the GI50.
(Formazan colour is commonly taken as a measure of viable cells.)

Series [6] is described as follows: Experimental physicochemical properties of FC101 (pKa, structural counts; Table 1).
Series [7] has as its system normal cardiac fibroblasts. Nature of the series: Confocal time-lapse fluorescence imaging of drug uptake (IOD) in normal cardiac fibroblasts. In kind it is cell-based, rat. Conditions: 400 nM. How it is done:
as §1, §2
FC101 is a naturally fluorescent molecule and its movements, accumulation and distribution within living cells can be followed and analyzed in real-time or by time-lapse imaging. Cellular uptake of the drug was analyzed using the integrated morphometry subroutine of MetaMorph 6.1 (MDS Analytical Technologies). […] The drug fluorescence in the cytoplasm of the cells was thresholded as a region of interest and the integrated optical density (IOD) of the drug fluorescence was measured for all cells in the field at each time point. Values of image brightness, contrast and gamma function were kept constant for all image measurements of drug fluorescence. […]

These results are taken from patent US9132280B2, “Use of fusarochromanone and its derivatives in the diagnosis and treatment of cancer and other diseases” (University of South Carolina, priority 2008, dated 2015).

By pKa is commonly meant the negative logarithm of the acid dissociation constant.

Entries after “also recorded” stand apart in the source; their conditions may differ.

As to `CC1(C)CC(=O)c2c(ccc(C(=O)CC(N)CO)c2N)O1` (racemic) [FC101, 5-amino-2,2-dimethyl-6-[3′-(R,S)amino-4′-hydroxy-butan-1-one]-2,3-dihydro-4H-1-benzopyran-4-one], the “Uptake of FC101 (intracellular fluorescence)” value in the series with B16 melanoma cells [1] (10 sec after addition) is given as “immediately entered the cells”; with B16 melanoma cells [1] (20 min after addition) it was “stable with no decrease in intracellular drug fluorescence”; in series [7] (10 sec after addition (less than a minute)) it was “No incorporation; also recorded: no uptake of FC101”; in series [7] (4 min after addition) it was “minimal increase in cytoplasmic fluorescence”; in series [7] (20 min after addition), “significant increase in intracellular fluorescence”. The figures for the “Cell death (phototoxic effect) on blue light exposure” value (in series [2]; in the series with B16 melanoma cells [5]) were “do not exhibit this effect; also recorded: ineffectiveness” and “undergo cell death”, respectively. Further, in series [3], the “Log10 D7.6” value came to 0.38. For the same compound, the “Log10 P” value in series [4] stood at 1.62. In addition, in the series with B-16 melanoma cells, the “Inhibition of cell growth, tumorigenic versus normal cells” value was “preferential inhibition of tumorigenic B-16 melanoma cells”. In series [6], the “Hydrogen Bond Acceptors” value worked out at 6. Further, in series [6], the “Hydrogen Bond Donors” value was 5. Besides, in series [6] (amino group on C-3 of the side chain), the pKa was determined as 8.6.
